According to patent US4378360A, “6-{3-[4-(Substituted benzyl)-1-piperazinyl]propyloxy}-4,9-dihydro-4,9-dioxo-1H-naphtho[2,3-d-]- v” (Beecham Group Limited, priority 1980, dated 1983):
Values joined by “and” are separate entries in the source; they are usually repeats but may differ in a detail not shown here. Equal values may be shown once.

Experiments:
[1] = target: T1, histamine on isolated guinea pig ileum (Cavia porcellus, UniProt P31389); experiment: Antihistamine activity (in vitro): antagonism of the spasmogenic effects of histamine on isolated guinea pig ileum; conditions: Tyrode solution, 30° C., antagonist 5-640 ng/ml, several assays per compound
T1 construct: strips of terminal guinea pig ileum suspended in a 4 ml capacity organ bath; from tissue; host or cells: terminal ileum strips of guinea pig (Dunkin Hartley male white guinea pigs)
T1 sequence (P31389 whole entry): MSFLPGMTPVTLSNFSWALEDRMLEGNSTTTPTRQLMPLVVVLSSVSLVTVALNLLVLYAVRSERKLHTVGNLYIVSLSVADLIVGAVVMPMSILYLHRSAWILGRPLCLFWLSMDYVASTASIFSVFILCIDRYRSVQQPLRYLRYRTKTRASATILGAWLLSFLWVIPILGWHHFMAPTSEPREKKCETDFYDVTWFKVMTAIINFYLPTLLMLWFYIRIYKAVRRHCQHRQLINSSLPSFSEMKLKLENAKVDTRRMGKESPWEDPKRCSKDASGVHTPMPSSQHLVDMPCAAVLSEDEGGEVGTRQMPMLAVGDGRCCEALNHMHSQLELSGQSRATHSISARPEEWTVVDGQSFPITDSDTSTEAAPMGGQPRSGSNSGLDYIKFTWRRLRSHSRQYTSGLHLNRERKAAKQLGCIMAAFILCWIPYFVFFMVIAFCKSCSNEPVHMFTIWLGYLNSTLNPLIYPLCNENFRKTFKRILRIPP
Protocol: (b) antagonise the spasmogenic effects of histamine on isolated guinea pig ileum.
(§1) Charles River Sprague Dawley male rats of 225-275 g and Dunkin Hartley male white guinea pigs of 250-300 g were used.
The anti-histamine activity of these compounds were measured in terms of pA2 values on guinea pig ileum using the method described by Arunlakshana, O. and Schild, H. O. (Brit J Pharm, 14, 1959, 48).
The pA2 is defined as the negative logarithm of the molar concentration of antagonist that will reduce the response of a double dose of agonist to that of a single dose.
Assays were carried out using strips of terminal guinea pig ileum suspended in a 4 ml capacity organ bath. The ileum was immersed in aerated Tyrode solution at a temperature of 30° C. and a tension of 1 gm was applied to the gut. Longitudinal contractions of the gut were recorded isotonically using a 2LD01 Devices transducer, a R2502-2 Devices optical wedge and a RE511.20 Smiths servoscribe flat bed recorder.
The tissue was constantly immersed in Tyrode solution washing was by fluid displacement from below. […]
The height of the response was measured in mms and a mean value calculated. […] The dose of histamine which produced a response of 100 mms were obtained for each curve from the graph and the ratio designated CR was calculated from [formula] […]

[2] = system: rat passive peritoneal anaphylaxis; experiment: Rat passive peritoneal anaphylaxis (PPA): histamine, SRS-A and dye in peritoneal fluid; format: in vivo; conditions: mean ± SEM, 5-7 rats per group
Text: (a) inhibit rat passive peritoneal anaphylaxis; and
(a) Rat passive peritoneal anaphylaxis (PPA)
The method has been described previously (Ross, Janet W., Smith, H. and Spicer, Barbara A. Increased vascular permeability during passive peritoneal anaphylaxis in the rat, Int Arch Allergy appl Immun, 51, 226, 1976).
as §1
This was raised in rats in one of two ways.
Charles River Sprague Dawley male rats of 225 to 275 g were given subcutaneous injections of 10 μg of ovalbumin (chicken egg albumin; crystallised and lyophilised, grade 3, Sigma London), in 0.5 ml of a suspension prepared by adding 1 ml of a 0.1 mg/ml solution of ovalbumin, in isotonic saline, to 4 ml of a 1% suspension of aluminium hydroxide in saline (Alhydrogel; Miles Laboratories, England; diluted 1:1 with isotonic saline). The rats were bled on day 10.
Charles River Sprague Dawley male rats of 225 to 300 g were given intraperitoneal injections of 0.5 ml of Bordetella pertussis vaccine (4×10^10 organisms/ml Burroughs Wellcome, London) and subcutaneous injections of 0.5 ml of an emulsion of 100 mg of ovalbumin of 2 ml of isotonic saline and 3 ml of Freund's incomplete adjuvant (Pifco Laboratories, Michigan USA). The rats were bled on day 18.
The rats were bled by cardiac puncture, the blood was pooled, from groups of rats treated similarly, and the serum separated, stored at -20° and thawed only once before use. The serum sensitised rats for passive cutaneous anaphylaxis (carried out as described: Spicer, Barbara A; Ross, Janet W and Smith, H; Inhibition of immediate hypersensitivity reactions in the rat by disodium cromoglycate and a nitroindanedione, Clin exp, Immunol, 21, 419, 1975) to a dilution of 1:32 to 1:64 persisting for at least 72 hours after sensitisation.
Rats were given intraperitoneal injections of 2 ml of a 1:5 dilution of the rat anti-serum in isotonic saline. Two hours later 0.3 ml of a 5% solution of Pontamine Sky Blue (Raymond A. Lamb, London) in isotonic saline was injected intravenously, followed by an intraperitoneal injection of the test compound in 1 ml of saline; (control rats received 1 ml of saline); followed 30 seconds later by an intraperitoneal injection of 5 ml of a Tyrode solution containing 50 μg/ml heparin and 0.4 mg/ml of ovalbumin. The concentrations of the compounds were quoted as those in the 6 ml of fluid injected intraperitoneally. Exactly 5 minutes after challenge the rats were stunned and bled and their peritoneal fluids were collected by opening their peritoneal cavities over funnels into polycarbonate tubes in ice. The supernatants were separated from the cellular residue by centrifuging at 150 g for 5 minutes and any samples obviously contaminated with blood were discarded for estimattion of dye, histamine and SRS-A. Groups of at least 5 rats were used for each dose of compound and the treatments were randomised.
Collected peritoneal fluids were immediately cooled to 0° C. and centrifuged and the supernatant fluids assayed for dye within 2 hours. 0.5 ml samples of the supernatants were added to 1 ml of 12% trichloracetic acid and stored at -20° C. and used to assay for histamine. The remainders of the supernatant fluids were placed in a boiling water bath for 5 minutes and stored frozen at -20° C. until assayed for SRS-A.
The optical densities (OD) at 625 nm of the supernatants were determined. Samples were taken from supernatants with an OD greater than 2 and diluted in Tyrode's solution before reading.
Histamine was assayed using an automated spectrofluorimetric system (Technicon Autoanalyser) by a method similar to that of Evans, D.P., Lewis, J. A. and Thomson, D. S.; (An automated fluorimetric assay for the rapid determination of histamine in biological fluids. Life Sci 12,327, 1973). […]

Row | Compound | pA2 values obtained in different assays [1] | Dye concentration in peritoneal fluid as % of mean of controls ([2]; 10^-5 M injected ip) | Histamine concentration in peritoneal fluid as % of mean of controls ([2]; 10^-5 M injected ip) | Dye concentration in peritoneal fluid as % of mean of controls ([2]; 10^-6 M injected ip) | Histamine concentration in peritoneal fluid as % of mean of controls ([2]; 10^-6 M injected ip) | Dye concentration in peritoneal fluid as % of mean of controls ([2]; 10^-7 M injected ip) | Histamine concentration in peritoneal fluid as % of mean of controls ([2]; 10^-7 M injected ip) | Kb ([1]; read-out: pA2 values obtained in different assays (converted)) | Dye concentration in peritoneal fluid as % of mean of controls ([2]; 2 × 10^-5 M injected ip) | Histamine concentration in peritoneal fluid as % of mean of controls ([2]; 2 × 10^-5 M injected ip) | SRS-A concentration in peritoneal fluid as % of mean of controls ([2]; 2 × 10^-5 M injected ip) | Dye concentration in peritoneal fluid as % of mean of controls ([2]; 2 × 10^-6 M injected ip) | Histamine concentration in peritoneal fluid as % of mean of controls ([2]; 2 × 10^-6 M injected ip) | SRS-A concentration in peritoneal fluid as % of mean of controls ([2]; 2 × 10^-6 M injected ip) | SRS-A concentration in peritoneal fluid as % of mean of controls ([2]; 10^-5 M injected ip) | SRS-A concentration in peritoneal fluid as % of mean of controls ([2]; 10^-6 M injected ip) | SRS-A concentration in peritoneal fluid as % of mean of controls ([2]; 10^-7 M injected ip)
1 | O=C1c2cc(OCCCN3CCN(Cc4ccccc4Cl)CC3)ccc2C(=O)c2[nH]nnc21 [Example 3, 6-{3-[4-(2-Chlorobenzyl)-1-piperazinyl]propyloxy}-4,9-dihydro-4,9-dioxo-1H-naphtho[2,3-d]-v-triazole] | 9.1 and 9.0 |  |  |  |  |  |  |  |  |  |  |  |  |  |  |  | 
2 | O=C1c2cccc(OCCCN3CCN(Cc4ccc(Cl)cc4)CC3)c2C(=O)c2nn[nH]c21 [Example 4, 5-{3-[4-(4-Chlorobenzyl)-1-piperazinyl]-propyloxy}-4,9-dihydro-4,9-dioxo-1H-naphtho-[2,3-d]-v-triazole] |  | 43 ± 2 % of mean of controls | 10 ± 1 % of mean of controls | 60 ± 11 % of mean of controls | 27 ± 4 % of mean of controls | 85 ± 9 % of mean of controls | 67 ± 8 % of mean of controls |  |  |  |  |  |  |  |  |  | 
3 | O=C1c2cc(OCCCN3CCN(Cc4ccc(Cl)cc4)CC3)ccc2C(=O)c2[nH]nnc21 [Example 1, 6-{3-[4-(4-Chlorobenzyl)-1-piperazinyl]propyloxy}-4,9-dihydro-4,9-dioxo-1H-naphtho[2,3-d]-v-triazole] |  | 38 ± 3 % of mean of controls | 17 ± 3 % of mean of controls | 54 ± 6 % of mean of controls | 27 ± 5 % of mean of controls | 75 ± 7 % of mean of controls | 90 ± 16 % of mean of controls | 1 nM and 0.501 nM (2×) and 1.26 nM | 29 ± 2 % of mean of controls | 16 ± 2 % of mean of controls | 75 ± 13 % of mean of controls | 47 ± 6 % of mean of controls | 23 ± 3 % of mean of controls | 119 ± 25 % of mean of controls | 39 ± 8 % of mean of controls | 65 ± 18 % of mean of controls | 109 ± 18 % of mean of controls
